One molecule from PMC8002452, “Molecular Basis of AmpC β-Lactamase Induction by Avibactam in Pseudomonas aeruginosa: PBP Occupancy, Live Cell Binding Dynamics and Impact on Resistant Clinical Isolates Harboring PDC-X Variants” (International Journal of Molecular Sciences, 2021) can be followed below.

The subject of test [1] is ampC mRNA in 110-G8 (AmpC DelG229–E247; PDC-223, CAZ/AVI-resistant ST175 clinical isolate). The experiment in a line: qRT-PCR quantification of AmpC induction. Type of test: cell-based, P. aeruginosa. As to conditions: IPM 8, FOX 64, AVI 16 µg/mL, relative to strain basal t=0. The method, then:
(§1) Samples were taken at 0, 30 and 180 min. Total RNA was extracted with the RNeasy Mini Kit (Qiagen, Hilden, Germany) and treated with TURBO DNase (Thermo Fisher Scientific, Waltham, MA, USA) to remove contaminating DNA. Samples were afterwards normalized to 50 ng/µL.
(§2) Normalized samples were then used for one-step reverse transcription and real-time PCR amplification using the QuantiTect SYBR green qRT-PCR kit (Qiagen, Hilden, Germany) in a CFX Connect Real-Time PCR System (Bio-Rad, Hercules, California, USA). Previously described primer pairs ACrnaF/ACrnaR and rpsL-1/rpsL-2 were used for the amplification of ampC and housekeeping gene rpsL, respectively. The mean values of relative mRNA expression (2^−ΔΔCt) obtained from at least two independent biological replicates and duplicate technical replicates were considered.
Background: In qPCR the cycle at which signal appears reflects the starting amount.

Test [2] deals with ampC mRNA in 101-E5 (CAZ/AVI-sensitive ST175 clinical isolate). The experiment in a line: qRT-PCR quantification of AmpC induction. It is filed as cell-based, P. aeruginosa. The conditions noted are these: IPM 8, FOX 64, AVI 16 µg/mL, relative to strain basal t=0. Here is the method:
as §1, §2

Test [3] has as its system ampC mRNA in wild-type PAO1. The experiment in a line: qRT-PCR quantification of AmpC induction. Type of test: cell-based, P. aeruginosa. The conditions noted are these: IPM 8, FOX 64, AVI 16 µg/mL, relative to strain basal t=0. The method, then: as §1, §2
In test [4] the test system is ampC mRNA in 109-E9 (CAZ/AVI-sensitive ST175 clinical isolate). The experiment in a line: qRT-PCR quantification of AmpC induction. Type of test: cell-based, P. aeruginosa. The conditions noted are these: IPM 8, FOX 64, AVI 16 µg/mL, relative to strain basal t=0. Here is the method:
as §1, §2

For test [5], the system named is ampC mRNA in 103-H8 (AmpC E247K; PDC-221, CAZ/AVI-resistant ST175 clinical isolate). In words: qRT-PCR quantification of AmpC induction. It is filed as cell-based, P. aeruginosa. The conditions noted are these: IPM 8, FOX 64, AVI 16 µg/mL, relative to strain basal t=0. Here is the method:
as §1, §2

A further test addresses PBP5/6 (Pseudomonas aeruginosa, UniProt G3XD74). The experiment in a line: Isolated PBP-containing membranes time-course binding assay. Set-up: species or system P. aeruginosa PAO1. As to conditions: isolated PAO1 membranes, 4 µg/mL avibactam, 15-60 min; read-out: PBP5/6 total fraction bound. The method, then: (§3) Figure 2 Time-course of intact cells and isolated PBP-binding assay. P. aeruginosa PAO1 cultures (a) and isolated PBP-containing membrane preparations (b) were incubated for 15, 30 and 60 min in the presence of 4 µg/mL avibactam (AVI). After isolating PBP-containing membranes, preparations were labeled with 25 µM bocillin FL. The graphs represent the PBP fraction unbound relative to each time control over time. The mean PBP fraction unbound values from at least three independent experiments ± standard deviations are shown.
(§4) In parallel to the aforementioned assay, we performed analogous experiments in which isolated PBP-containing membrane preparations instead of intact cells were pre-exposed to avibactam. Briefly, membrane preparations containing PBPs were obtained by following previously described protocols and were incubated for 15, 30 and 60 min at 37 °C in the presence of 4 µg/mL avibactam and were afterwards labeled with bocillin FL (25 μM). Determination of the PBP fraction unbound was performed as described in the above section.

The target of a further test is PBP4 (Pseudomonas aeruginosa, UniProt Q9HZG1). The description is as above. Set-up: species or system P. aeruginosa PAO1. The conditions noted are these: isolated PAO1 membranes, 4 µg/mL avibactam, 15-60 min; read-out: PBP4 total fraction bound. Here is the method: as §3, §4
PBP4, sequence (Q9HZG1 entry or part of it): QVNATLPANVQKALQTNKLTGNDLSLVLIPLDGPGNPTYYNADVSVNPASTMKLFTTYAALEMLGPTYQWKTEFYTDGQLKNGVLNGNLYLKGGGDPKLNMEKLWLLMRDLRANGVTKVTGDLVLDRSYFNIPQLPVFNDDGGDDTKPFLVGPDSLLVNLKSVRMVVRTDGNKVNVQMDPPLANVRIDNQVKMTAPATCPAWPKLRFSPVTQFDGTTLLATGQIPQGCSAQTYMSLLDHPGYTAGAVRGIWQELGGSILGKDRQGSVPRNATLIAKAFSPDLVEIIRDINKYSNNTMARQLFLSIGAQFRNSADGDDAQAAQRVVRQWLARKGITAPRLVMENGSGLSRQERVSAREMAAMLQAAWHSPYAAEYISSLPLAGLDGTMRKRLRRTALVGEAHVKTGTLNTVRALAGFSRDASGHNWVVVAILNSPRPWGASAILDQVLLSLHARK

PBP5/6, sequence (G3XD74 entry or part of it): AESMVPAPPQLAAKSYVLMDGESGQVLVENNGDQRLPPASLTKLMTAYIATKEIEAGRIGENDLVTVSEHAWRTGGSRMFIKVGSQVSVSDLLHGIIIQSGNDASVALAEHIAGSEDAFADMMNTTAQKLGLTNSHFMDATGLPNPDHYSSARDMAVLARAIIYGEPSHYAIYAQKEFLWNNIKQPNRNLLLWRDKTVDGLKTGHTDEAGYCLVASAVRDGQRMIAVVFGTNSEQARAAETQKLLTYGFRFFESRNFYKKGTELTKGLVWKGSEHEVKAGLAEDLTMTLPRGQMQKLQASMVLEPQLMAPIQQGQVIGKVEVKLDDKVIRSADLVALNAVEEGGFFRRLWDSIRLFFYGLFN

As to `NC(=O)[C@@H]1CC[C@@H]2CN1C(=O)N2OS(=O)(=O)O` [Avibactam], the “Relative ampC expression” value in test [1] (110-G8, 0 min) is listed as 3.3; in test [1] (110-G8, 30 min), 2.6; in test [1] (110-G8, 180 min), 8.7; in test [2] (101-E5, 0 min), 1.2; in test [2] (101-E5, 30 min) it was 0.5; in test [2] (101-E5, 180 min), 3.1. Moreover, the “Relative ampC expression” value in test [3] (PAO1, 0 min) amounted to 1.1; in test [3] (PAO1, 30 min), 5.8; in test [3] (PAO1, 180 min), 60.6 ± 25.2; in test [3] (PAO1, 180 min, listed as AVI) it was 60.6; in test [4] (109-E9, 0 min) it was 0.9; in test [4] (109-E9, 30 min), 1.5. In addition, the “Relative ampC expression” value in test [4] (109-E9, 180 min) turned out to be 6.2; in test [5] (103-H8, 0 min), 1.4; in test [5] (103-H8, 30 min), 2.1; in test [5] (103-H8, 180 min) it was 6.9. In addition, the figures for the inhibition at 4 µg/mL on PBP5/6 and on PBP4 were not above 82% and not above 68%, respectively.
